Here are results for five compounds from article PMC6272684, “Synthesis, Antiproliferative and Antifungal Activities of 1,2,3-Triazole-Substituted Carnosic Acid and Carnosol Derivatives” (Molecules, 2015).

The subject of assay [1] is C. neoformans ATCC 32264. The experiment in a line: Antifungal broth microdilution (CLSI M27-A3), growth inhibition. To be noted: for MIC50 (minimum concentration to inhibit 50% of fungal growth), C. neoformans: C. neoformans ATCC 32264. Format: cell-based, Cryptococcus neoformans. Here is the method:
(§1) The antifungal properties of compounds 1–24 against two clinical important fungal species, C. albicans ATCC 10231 and C. neoformans ATCC 32264 were investigated. Results were expressed as the percentages of inhibition of each fungus in the range 250–3.9 μg∙mL^−1 by using the standardized microbroth dilution method M-27A3 of Clinical and Laboratory Standards Institute which assures reliable and reproducible results.
(§2) For the antifungal evaluation, standardized strains from the American Type Culture Collection (ATCC), Rockville, MD, USA, were used. The microorganisms included yeasts (Candida albicans ATCC 10231 and Cryptococcus neoformans ATCC 32264). Strains were grown on Sabouraud-chloramphenicol agar slants for 48 h at 30 °C, maintained on slopes of Sabouraud-dextrose agar (SDA, Oxoid), and subcultured every 15 days to prevent pleomorphic transformations. Inocula of cell or spore suspensions were obtained according to reported procedures and adjusted to 1–5 × 10^3 cells/spores with colony forming units (CFU)/mL [29].
(§3) Broth microdilution techniques were performed in 96-well microplates according to the Clinical and Laboratory Standards Institute Reference Method for Broth Dilution Antifungal Susceptibility Testing of Yeasts, Approved Standard M27-A3 [29]. For the assay, compound test wells (CTWs) were prepared with stock solutions of each compound in DMSO (maximum concentration ≤1%), diluted with RPMI-1640, to final concentrations of 250–3.9 μg∙mL^−1. An inoculum suspension (100 μL) was added to each well (final volume in the well = 200 μL). A growth control well (GCW) (containing medium, inoculum, and the same amount of DMSO used in a CTW, but compound-free) and a sterility control well (SCW) (sample, medium, and sterile water instead of inoculum) were included for each fungus tested. Microtiter trays were incubated in a moist, dark chamber at 30 °C for 48 h for both yeasts. Microplates were read in a VERSA Max microplate reader (Molecular Devices, Sunnyvale, CA, USA). Amphotericin B (Sigma-Aldrich) was used as positive control. Tests were performed in triplicate. Reduction of growth for each compound concentration was calculated as follows: % of inhibition = 100 − (OD 405 CTW − OD 405 SCW)/(OD 405 GCW − OD 405 SCW). The means ± SEM were the results of triplicate tests. Three endpoints were defined from the assay explained above and the dose-response curves. Minimum Inhibitory concentration (MIC) resulting in total fungal growth inhibition was named MIC100 while MIC50 was defined as the minimum concentration that inhibits 50% of the fungal growth.

Assay [2] relates to C. albicans ATCC 10231. The assay is described as above. It counts as cell-based, Candida albicans. As to conditions: for MIC50 (minimum concentration to inhibit 50% of fungal growth), C. albicans: C. albicans ATCC 10231. Here is the method: as §1, §2, §3

SMILES strings stand for the structures.

For the compound `COC(=O)C12CCCC(C)(C)C1CCc1cc(C(C)C)c(OC(=O)CCc3cn(Cc4ccc(Br)cc4)nn3)c(OC(=O)CCc3cn(Cc4ccc(Br)cc4)nn3)c12` (centres unmarked) [Compound 13, Methyl(11,12-O-(3-(1-(4-bromobenzyl)-1H-1,2,3-triazol-4-yl)-propanoyloxy)-abieta-8,11,13-triene)-20-oate], the “Inhibition percentage against C. neoformans ATCC 32264” value in assay [1] (3.9 μg∙mL^−1, 48 h) is given as 5.8 ± 0.6%; in assay [1] (7.8 μg∙mL^−1, 48 h), 10.0 ± 1.0%; in assay [1] (15.6 μg∙mL^−1, 48 h) it was 13.3 ± 0.3%; in assay [1] (31.2 μg∙mL^−1, 48 h), 13.7 ± 0.6%; in assay [1] (62.5 μg∙mL^−1, 48 h), 16.3 ± 1.1%; in assay [1] (125 μg∙mL^−1, 48 h), 16.8 ± 1.8%. Besides, in assay [1] (250 μg∙mL^−1, 48 h), the “Inhibition percentage against C. neoformans ATCC 32264” value is 25.7 ± 0.5%. Besides, the “MIC50 (minimum concentration to inhibit 50% of fungal growth), C. neoformans” value in assay [1] was >250 µg/mL. In addition, the “Inhibition percentage against C. albicans ATCC 10231” value in assay [2] (3.9 μg∙mL^−1, 48 h) is listed as 0.0%; in assay [2] (7.8 μg∙mL^−1, 48 h) it was 0.6 ± 0.1%; in assay [2] (15.6 μg∙mL^−1, 48 h) it was 1.3 ± 0.3%; in assay [2] (62.5 μg∙mL^−1, 48 h), 6.7 ± 0.1%; in assay [2] (125 μg∙mL^−1, 48 h), 10.7 ± 0.3%; in assay [2] (250 μg∙mL^−1, 48 h), 17.6 ± 0.2%. The “Inhibition percentage against C. albicans ATCC 10231” value in assay [2] (31. μg∙mL^−1, 48 h) came out at 4.3 ± 0.4%. The “MIC50 (minimum concentration to inhibit 50% of fungal growth), C. albicans” value in assay [2] was >250 µg/mL.

As for `COC(=O)C12CCCC(C)(C)C1CCc1cc(C(C)C)c(OC(=O)CCc3cn(Cc4ccc([N+](=O)[O-])cc4)nn3)c(OC(=O)CCc3cn(Cc4ccc([N+](=O)[O-])cc4)nn3)c12` (centres unmarked) [Compound 15, Methyl(11,12-O-(3-(1-(4-nitrobenzyl)-1H-1,2,3-triazol-4-yl)-propanoyloxy)-abieta-8,11,13-triene)-20-oate], the “Inhibition percentage against C. neoformans ATCC 32264” value came out at 0.0% in assay [1] (3.9 μg∙mL^−1, 48 h); 0.0% in assay [1] (7.8 μg∙mL^−1, 48 h); 10.0 ± 0.6% in assay [1] (15.6 μg∙mL^−1, 48 h); 13.0 ± 1.4% in assay [1] (31.2 μg∙mL^−1, 48 h); 15.5 ± 2.0% in assay [1] (62.5 μg∙mL^−1, 48 h); 22.0 ± 2.7% in assay [1] (125 μg∙mL^−1, 48 h). Also, the “Inhibition percentage against C. neoformans ATCC 32264” value in assay [1] (250 μg∙mL^−1, 48 h) came out at 45.4 ± 3.0%. The “MIC50 (minimum concentration to inhibit 50% of fungal growth), C. neoformans” value in assay [1] is >250 µg/mL. Moreover, the “Inhibition percentage against C. albicans ATCC 10231” value in assay [2] (3.9 μg∙mL^−1, 48 h) is recorded as 0.0%; in assay [2] (7.8 μg∙mL^−1, 48 h), 0.0%; in assay [2] (15.6 μg∙mL^−1, 48 h), 2.6 ± 0.3%; in assay [2] (62.5 μg∙mL^−1, 48 h), 8.2 ± 0.3%; in assay [2] (125 μg∙mL^−1, 48 h), 15.2 ± 2.8%; in assay [2] (250 μg∙mL^−1, 48 h), 33.4 ± 2.7%. In addition, the “Inhibition percentage against C. albicans ATCC 10231” value in assay [2] (31. μg∙mL^−1, 48 h) amounted to 3.0 ± 1.1%. Moreover, the “MIC50 (minimum concentration to inhibit 50% of fungal growth), C. albicans” value in assay [2] was >250 µg/mL.

Regarding `COC(=O)C12CCCC(C)(C)C1CCc1cc(C(C)C)c(OC(=O)CCCc3cn(CSc4ccccc4)nn3)c(OC(=O)CCCc3cn(CSc4ccccc4)nn3)c12` (centres unmarked) [Compound 10, Methyl(11,12-O-(4-(((1-phenylthio)methyl)-1H-1,2,3-triazol-4-yl)-butanoyloxy)-abieta-8,11,13-triene)-20-oate], the “Inhibition percentage against C. neoformans ATCC 32264” value in assay [1] (3.9 μg∙mL^−1, 48 h) is reported as 0.0%; in assay [1] (7.8 μg∙mL^−1, 48 h) it was 11.3 ± 0.5%; in assay [1] (15.6 μg∙mL^−1, 48 h) it was 14.4 ± 0.8%; in assay [1] (31.2 μg∙mL^−1, 48 h) it was 18.6 ± 1.5%; in assay [1] (62.5 μg∙mL^−1, 48 h) it was 19.1 ± 1.8%; in assay [1] (125 μg∙mL^−1, 48 h) it was 42.9 ± 2.0%. The “Inhibition percentage against C. neoformans ATCC 32264” value in assay [1] (250 μg∙mL^−1, 48 h) stood at 63.9 ± 2.9%. In addition, in assay [1], the “MIC50 (minimum concentration to inhibit 50% of fungal growth), C. neoformans” value was 250 µg/mL. The “Inhibition percentage against C. albicans ATCC 10231” value in assay [2] (3.9 μg∙mL^−1, 48 h) amounted to 1.3 ± 1.3%; in assay [2] (7.8 μg∙mL^−1, 48 h) it was 2.8 ± 0.1%; in assay [2] (15.6 μg∙mL^−1, 48 h), 3.9 ± 0.9%; in assay [2] (62.5 μg∙mL^−1, 48 h) it was 10.1 ± 0.9%; in assay [2] (125 μg∙mL^−1, 48 h), 18.8 ± 0.4%; in assay [2] (250 μg∙mL^−1, 48 h), 35.0 ± 0.8%. The “Inhibition percentage against C. albicans ATCC 10231” value in assay [2] (31. μg∙mL^−1, 48 h) amounted to 5.1 ± 1.3%. For the same compound, in assay [2], the “MIC50 (minimum concentration to inhibit 50% of fungal growth), C. albicans” value was >250 µg/mL.

In the case of `CC(C)c1cc2c(c(OC(=O)CCc3cn(Cc4ccc(Br)cc4)nn3)c1OC(=O)CCc1cn(Cc3ccc(Br)cc3)nn1)C13CCCC(C)(C)C1CC2OC3=O` (stereo not drawn) [Compound 21, (7β)-11,12-O-(3-(1-(4-bromobenzyl)-1H-1,2,3-triazol-4-yl)-propanoyloxy)-7,20-epoxyabieta-8,11,13-trien-20-one], the “Inhibition percentage against C. neoformans ATCC 32264” value in assay [1] (3.9 μg∙mL^−1, 48 h) turned out to be 1.2 ± 0.6%; in assay [1] (7.8 μg∙mL^−1, 48 h) it was 6.7 ± 0.3%; in assay [1] (15.6 μg∙mL^−1, 48 h) it was 17.9 ± 0.2%; in assay [1] (31.2 μg∙mL^−1, 48 h), 18.9 ± 0.7%; in assay [1] (62.5 μg∙mL^−1, 48 h) it was 19.2 ± 0.2%; in assay [1] (125 μg∙mL^−1, 48 h), 28.8 ± 0.4%. Also, the “Inhibition percentage against C. neoformans ATCC 32264” value in assay [1] (250 μg∙mL^−1, 48 h) is recorded as 40.0 ± 0.3%. Also, in assay [1], the “MIC50 (minimum concentration to inhibit 50% of fungal growth), C. neoformans” value is >250 µg/mL. The “Inhibition percentage against C. albicans ATCC 10231” value was 0.0% in assay [2] (3.9 μg∙mL^−1, 48 h); 0.0% in assay [2] (7.8 μg∙mL^−1, 48 h); 2.6 ± 0.6% in assay [2] (15.6 μg∙mL^−1, 48 h); 4.4 ± 1.3% in assay [2] (62.5 μg∙mL^−1, 48 h); 6.6 ± 1.1% in assay [2] (125 μg∙mL^−1, 48 h); 8.6 ± 2.0% in assay [2] (250 μg∙mL^−1, 48 h). Further, the “Inhibition percentage against C. albicans ATCC 10231” value in assay [2] (31. μg∙mL^−1, 48 h) worked out at 3.5 ± 0.6%. Besides, in assay [2], the “MIC50 (minimum concentration to inhibit 50% of fungal growth), C. albicans” value is >250 µg/mL.

`CC(C)c1cc2c(c(OC(=O)CCCc3cn(Cc4ccccc4)nn3)c1OC(=O)CCCc1cn(Cc3ccccc3)nn1)C13CCCC(C)(C)C1CC2OC3=O` (stereo not drawn) [Compound 20, (7β)-11,12-O-(4-(1-benzyl-1H-1,2,3-triazol-4-yl)-butanoyloxy)-7,20-epoxyabieta-8,11,13-trien-20-one]: the “Inhibition percentage against C. neoformans ATCC 32264” value in assay [1] (3.9 μg∙mL^−1, 48 h) is given as 0.0%; in assay [1] (7.8 μg∙mL^−1, 48 h), 0.0%; in assay [1] (15.6 μg∙mL^−1, 48 h), 0.0%; in assay [1] (31.2 μg∙mL^−1, 48 h), 2.7 ± 2.7%; in assay [1] (62.5 μg∙mL^−1, 48 h), 10.4 ± 0.2%; in assay [1] (125 μg∙mL^−1, 48 h) it was 14.5 ± 1.2%. Also, the “Inhibition percentage against C. neoformans ATCC 32264” value in assay [1] (250 μg∙mL^−1, 48 h) is listed as 22.0 ± 1.0%. In assay [1], the “MIC50 (minimum concentration to inhibit 50% of fungal growth), C. neoformans” value was >250 µg/mL. Also, the “Inhibition percentage against C. albicans ATCC 10231” value in assay [2] (3.9 μg∙mL^−1, 48 h) was determined as 0.7 ± 0.1%; in assay [2] (7.8 μg∙mL^−1, 48 h) it was 1.6 ± 0.2%; in assay [2] (15.6 μg∙mL^−1, 48 h), 3.0 ± 0.4%; in assay [2] (62.5 μg∙mL^−1, 48 h) it was 10.9 ± 1.6%; in assay [2] (125 μg∙mL^−1, 48 h) it was 21.4 ± 3.4%; in assay [2] (250 μg∙mL^−1, 48 h), 34.5 ± 0.5%. Besides, the “Inhibition percentage against C. albicans ATCC 10231” value in assay [2] (31. μg∙mL^−1, 48 h) is given as 4.3 ± 0.4%. The “MIC50 (minimum concentration to inhibit 50% of fungal growth), C. albicans” value in assay [2] is >250 µg/mL.
